PubChem BioAssay AID270 (DTP/NCI, 2004)
Values joined by “and” are separate entries in the source; they are usually repeats but may differ in a detail not shown here. Identical values can stand only once. Records with an inconclusive call do not appear.

Tested on: BDF1 mice, s.c. Lewis lung carcinoma, T/C %
Test: NCI In Vivo Anticancer Drug Screen. Data for tumor model Lewis Lung Carcinoma (subcutaneous) in B6D2F1 (BDF1) mice
Procedure, shortened: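 First, mice carry a transplantable tumor. Next, groups receive either compound or vehicle. Finally, survival or tumor dimensions in the dosed animals are divided by the corresponding control figure.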

[1] = endpoint: mean tumor weight, dose: 50.0 mg/kg/injection, schedule: Q01DX011 (ip), vehicle: saline, higher = larger tumour

Compound: CC(=O)CC(C)(C)N
- T/C (endpoint: mean tumor weight, dose: 15.0 mg/kg/injection, schedule: Q01DX011 (ip), vehicle: saline, higher = larger tumour): 118 % of control
- T/C (endpoint: mean tumor weight, dose: 33.0 mg/kg/injection, schedule: Q01DX011 (ip), vehicle: saline, higher = larger tumour): 101 % of control
- T/C (endpoint: mean tumor weight, dose: 50.0 mg/kg/injection, schedule: Q01DX011 (ip), vehicle: methylcellulose (MC), higher = larger tumour): 50 % of control
- T/C [1]: 120 % of control
- T/C (endpoint: mean tumor weight, dose: 75.0 mg/kg/injection, schedule: Q01DX011 (ip), vehicle: methylcellulose (MC), higher = larger tumour): 91 % of control
- T/C (endpoint: mean tumor weight, dose: 100.0 mg/kg/injection, schedule: Q01DX011 (ip), vehicle: methylcellulose (MC), higher = larger tumour): 30 % of control

Compound: CCN(CC)CCNc1ccc([N+](=O)[O-])c2sc3ccccc3c(=O)c12
- T/C (endpoint: mean tumor weight, dose: 12.5 mg/kg/injection, schedule: Q01DX011 (ip), vehicle: other, higher = larger tumour): 88 % of control
- T/C (endpoint: mean tumor weight, dose: 25.0 mg/kg/injection, schedule: Q01DX011 (ip), vehicle: other, higher = larger tumour): 102 % of control
- T/C (endpoint: mean tumor weight, dose: 50.0 mg/kg/injection, schedule: Q01DX011 (ip), vehicle: other, higher = larger tumour): 84 % of control

Compound: O=NN(CCCl)C(=O)NC1CCS(=O)(=O)C1 (stereo unspecified) (tested in a mixture with another compound)
- T/C (endpoint: median survival time, dose: 11.0 mg/kg/injection, schedule: Q01DX001 (ip), vehicle: saline with Tween-80, higher = longer survival): 88 % of control
- T/C (endpoint: median survival time, dose: 16.0 mg/kg/injection, schedule: Q01DX001 (ip), vehicle: saline with Tween-80, higher = longer survival): 100 % of control
- T/C (endpoint: median survival time, dose: 30.0 mg/kg/injection, schedule: Q01DX001 (ip), vehicle: saline with Tween-80, higher = longer survival): 92 % of control

Compound: C/C=C/c1cc2n(c1)C(=O)c1cc(OC3OC(C)C(NC)C(C)(O)C3O)c(C)c(O)c1NC2O (stereo unspecified)
- T/C (endpoint: median survival time, dose: 2.0 micrograms/kg/injection, schedule: Q04DX003 (ip), vehicle: saline, higher = longer survival): 102 % of control
- T/C (endpoint: median survival time, dose: 4.0 micrograms/kg/injection, schedule: Q04DX003 (ip), vehicle: saline, higher = longer survival): 92 % of control
- T/C (endpoint: median survival time, dose: 8.0 micrograms/kg/injection, schedule: Q04DX003 (ip), vehicle: saline, higher = longer survival): 103 % of control
- T/C (endpoint: median survival time, dose: 16.0 micrograms/kg/injection, schedule: Q04DX003 (ip), vehicle: saline, higher = longer survival): 95 % of control

Compound: O=NN(CCF)C(=O)NC1CCCCC1
- T/C (endpoint: median survival time, dose: 5.0 mg/kg/injection, schedule: Q01DX001 (ip), vehicle: Klucel (hydroxypropylcellulose) (HPC), higher = longer survival): 101 % of control (2×) and 119 % of control
- T/C (endpoint: median survival time, dose: 5.1 mg/kg/injection, schedule: Q01DX001 (ip), vehicle: other, higher = longer survival): 96 % of control
- T/C (endpoint: median survival time, dose: 10.0 mg/kg/injection, schedule: Q01DX001 (ip), vehicle: Klucel (hydroxypropylcellulose) (HPC), higher = longer survival): 90 % of control and 116 % of control and 119 % of control
- T/C (endpoint: median survival time, dose: 10.2 mg/kg/injection, schedule: Q01DX001 (ip), vehicle: other, higher = longer survival): 105 % of control
- T/C (endpoint: median survival time, dose: 20.0 mg/kg/injection, schedule: Q01DX001 (ip), vehicle: Klucel (hydroxypropylcellulose) (HPC), higher = longer survival): 101 % of control and 109 % of control and 119 % of control
- T/C (endpoint: median survival time, dose: 20.4 mg/kg/injection, schedule: Q01DX001 (ip), vehicle: other, higher = longer survival): 121 % of control
- T/C (endpoint: median survival time, dose: 40.0 mg/kg/injection, schedule: Q01DX001 (ip), vehicle: Klucel (hydroxypropylcellulose) (HPC), higher = longer survival): 182 % of control

Compound: CCC(=O)NC1=C(N2CC2)C(=O)C(NC(=O)CC)=C(N2CC2)C1=O
- T/C (endpoint: mean tumor weight, dose: 1.8 mg/kg/injection, schedule: Q01DX011 (ip), vehicle: other, higher = larger tumour): 72 % of control
- T/C (endpoint: mean tumor weight, dose: 2.7 mg/kg/injection, schedule: Q01DX011 (ip), vehicle: other, higher = larger tumour): 54 % of control
- T/C (endpoint: mean tumor weight, dose: 4.0 mg/kg/injection, schedule: Q01DX011 (ip), vehicle: other, higher = larger tumour): 27 % of control
- T/C (endpoint: mean tumor weight, dose: 6.0 mg/kg/injection, schedule: Q01DX011 (ip), vehicle: other, higher = larger tumour): 28 % of control

Compound: O=C1C=Cc2ccc(O)cc2C1=O
- T/C (endpoint: mean tumor weight, dose: 0.57 mg/kg/injection, schedule: Q01DX011 (ip), vehicle: saline, higher = larger tumour): 104 % of control
- T/C (endpoint: mean tumor weight, dose: 0.86 mg/kg/injection, schedule: Q01DX011 (ip), vehicle: saline, higher = larger tumour): 81 % of control
- T/C (endpoint: mean tumor weight, dose: 1.3 mg/kg/injection, schedule: Q01DX011 (ip), vehicle: saline, higher = larger tumour): 59 % of control
- T/C (endpoint: mean tumor weight, dose: 2.0 mg/kg/injection, schedule: Q01DX011 (ip), vehicle: saline, higher = larger tumour): 60 % of control

Compound: Nc1cc(Cl)cc(Cl)c1
- T/C (endpoint: mean tumor weight, dose: 29.0 mg/kg/injection, schedule: Q01DX011 (ip), vehicle: other, higher = larger tumour): 90 % of control
- T/C (endpoint: mean tumor weight, dose: 44.0 mg/kg/injection, schedule: Q01DX011 (ip), vehicle: other, higher = larger tumour): 65 % of control
- T/C (endpoint: mean tumor weight, dose: 66.0 mg/kg/injection, schedule: Q01DX011 (ip), vehicle: other, higher = larger tumour): 98 % of control

Compound: COc1ccc(-c2cc(=O)c3c(OC)c(OC)c(OC)c(OC)c3o2)cc1OC
- T/C [1]: 55 % of control and 77 % of control
- T/C (endpoint: mean tumor weight, dose: 200.0 mg/kg/injection, schedule: Q01DX011 (ip), vehicle: saline, higher = larger tumour): 62 % of control and 78 % of control
